Reference: ChEMBL document CHEMBL1201862, “PubChem BioAssay data set” (2004)
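Protocol summary: plate cells (96-well), add compound at 5 concentrations, incubate 48 h, interpolate endpoints linearly. GI50 marks 50% less growth.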 The source made the active and inactive calls. Rule as the data show it: active = GI50 up to about 1.1 µM and inactive = higher.

Key:
Assay in all cases: NCI anticancer screen, dose series, 48 h
SNB-75 = tested on: SNB-75
CCRF-CEM = tested on: CCRF-CEM
ACHN = tested on: ACHN
UACC-257 = tested on: UACC-257
SF-268 = tested on: SF-268
COLO 205 = tested on: COLO 205
IGROV-1 = tested on: IGROV-1
UACC-62 = tested on: UACC-62
A498 = tested on: A498
M14 = tested on: M14
OVCAR-3 = tested on: OVCAR-3
786-0 = tested on: 786-0
RXF 393 = tested on: RXF 393
HCT-116 = tested on: HCT-116
PC-3 = tested on: PC-3
NCI-H226 = tested on: NCI-H226
TK-10 = tested on: TK-10
NCI/ADR-RES = tested on: NCI/ADR-RES
MDA-MB-435 = tested on: MDA-MB-435
KM12 = tested on: KM12

Measured: GI50

CCn1c(-c2ccccc2)cs/c1=N\C(P(=O)(O)O)P(=O)(O)O
inactive: SNB-75 > 100 µM | CCRF-CEM 2.05 µM | ACHN > 100 µM | UACC-257 > 100 µM | SF-268 > 100 µM | COLO 205 > 100 µM | IGROV-1 > 100 µM | UACC-62 > 100 µM | A498 > 100 µM | M14 > 100 µM | OVCAR-3 > 100 µM | 786-0 > 100 µM | RXF 393 > 100 µM | HCT-116 > 100 µM | PC-3 > 100 µM | NCI-H226 > 100 µM | TK-10 > 100 µM | NCI/ADR-RES > 100 µM | MDA-MB-435 > 100 µM | KM12 > 100 µM

C[N+](C)(C)CCCSc1nc2ccccc2[nH]1
inactive: CCRF-CEM > 100 µM | ACHN > 100 µM | UACC-257 30.1 µM | SF-268 > 100 µM | COLO 205 > 100 µM | IGROV-1 > 100 µM | UACC-62 > 100 µM | A498 > 100 µM | M14 > 100 µM | OVCAR-3 > 100 µM | 786-0 > 100 µM | RXF 393 > 100 µM | HCT-116 > 100 µM | PC-3 > 100 µM | NCI-H226 > 100 µM | TK-10 > 100 µM | NCI/ADR-RES > 100 µM | MDA-MB-435 > 100 µM | KM12 > 100 µM

CC(C)OC(=O)NNc1c(Cl)cc(Cl)cc1Cl
inactive: SNB-75 99.5 µM | CCRF-CEM 53.6 µM | ACHN > 100 µM | UACC-257 33.7 µM | SF-268 39.1 µM | COLO 205 49.1 µM | IGROV-1 37.3 µM | UACC-62 56.9 µM | A498 30.5 µM | M14 51.5 µM | OVCAR-3 56 µM | 786-0 > 100 µM | RXF 393 26.2 µM | HCT-116 80.9 µM | PC-3 36.9 µM | TK-10 37.7 µM | NCI/ADR-RES 67.9 µM | MDA-MB-435 82.8 µM | KM12 71.6 µM

Cc1ccc(Cc2cc(N3CCN(c4cccc(Cl)c4)CC3)nnc2C)cc1
inactive: SNB-75 50.4 µM | ACHN 88.5 µM | UACC-257 14.2 µM | SF-268 > 100 µM | COLO 205 29.6 µM | UACC-62 > 100 µM | A498 > 100 µM | M14 > 100 µM | OVCAR-3 > 100 µM | 786-0 45.2 µM | RXF 393 84.7 µM | HCT-116 22.5 µM | PC-3 46.8 µM | TK-10 > 100 µM | NCI/ADR-RES 43.3 µM | MDA-MB-435 27.7 µM | KM12 44.4 µM

CC(C)(C)OC(=O)C1CCC/C1=N/Nc1ccc([N+](=O)[O-])cc1[N+](=O)[O-] (stereo unspecified)
inactive: SNB-75 19.1 µM | CCRF-CEM 19.7 µM | ACHN 45.3 µM | SF-268 41.8 µM | COLO 205 27 µM | IGROV-1 25.5 µM | UACC-62 26.9 µM | A498 13 µM | M14 39.6 µM | OVCAR-3 46.6 µM | 786-0 23 µM | RXF 393 33.2 µM | HCT-116 21.4 µM | PC-3 10.3 µM | NCI-H226 21.3 µM | TK-10 43.7 µM | NCI/ADR-RES 26.1 µM | MDA-MB-435 21.2 µM | KM12 54.7 µM

COc1ccc(NC(=S)Nc2cc(C)cc(C)n2)cc1
inactive: SNB-75 > 100 µM | CCRF-CEM > 100 µM | UACC-257 > 100 µM | SF-268 > 100 µM | COLO 205 > 100 µM | IGROV-1 > 100 µM | UACC-62 > 100 µM | A498 > 100 µM | M14 > 100 µM | OVCAR-3 > 100 µM | 786-0 > 100 µM | RXF 393 > 100 µM | HCT-116 > 100 µM | PC-3 > 100 µM | NCI-H226 > 100 µM | TK-10 > 100 µM | NCI/ADR-RES > 100 µM | MDA-MB-435 > 100 µM | KM12 > 100 µM

Cc1ccc(C2(c3ccc(C)cc3)SC(=C(C#N)C#N)c3ccccc32)cc1
inactive: CCRF-CEM 58.3 µM | ACHN > 100 µM | SF-268 > 100 µM | IGROV-1 > 100 µM | UACC-62 53 µM | A498 > 100 µM | M14 > 100 µM | OVCAR-3 > 100 µM | 786-0 > 100 µM | RXF 393 > 100 µM | HCT-116 13.2 µM | PC-3 83.9 µM | NCI-H226 > 100 µM | TK-10 > 100 µM | NCI/ADR-RES 45.6 µM | MDA-MB-435 5.31 µM | KM12 23 µM

COc1cc(S(=O)(=O)Nc2ccc(-c3csc(N)n3)cc2)ccc1Cl
inactive: SNB-75 21.4 µM | CCRF-CEM 15.5 µM | ACHN 17.4 µM | SF-268 34.4 µM | COLO 205 17 µM | UACC-62 15.2 µM | A498 18.2 µM | M14 18.6 µM | OVCAR-3 14.9 µM | 786-0 16.4 µM | RXF 393 12.2 µM | HCT-116 16.2 µM | PC-3 15.3 µM | NCI-H226 26.4 µM | NCI/ADR-RES 33.9 µM | MDA-MB-435 20.8 µM

O=C1N/C(=N/N=C\c2ccccc2)N/C1=C/c1ccccc1
inactive: SNB-75 25.6 µM | CCRF-CEM 23.2 µM | ACHN 13.2 µM | UACC-257 53.6 µM | SF-268 27.3 µM | COLO 205 68.5 µM | IGROV-1 24.8 µM | A498 30.9 µM | M14 45.4 µM | OVCAR-3 32.2 µM | 786-0 33.6 µM | RXF 393 30 µM | HCT-116 34.6 µM | PC-3 24.9 µM | NCI-H226 14.8 µM | TK-10 38.5 µM | NCI/ADR-RES 22.9 µM | MDA-MB-435 17.1 µM | KM12 22.5 µM

COC1CC(N)(c2ccccc2)C(O)C(C)O1 (stereo unspecified)
inactive: SNB-75 > 100 µM | CCRF-CEM > 100 µM | ACHN > 100 µM | UACC-257 > 100 µM | SF-268 > 100 µM | COLO 205 > 100 µM | IGROV-1 > 100 µM | UACC-62 > 100 µM | A498 > 100 µM | M14 > 100 µM | OVCAR-3 > 100 µM | 786-0 > 100 µM | RXF 393 > 100 µM | HCT-116 > 100 µM | PC-3 > 100 µM | NCI-H226 > 100 µM | NCI/ADR-RES > 100 µM | MDA-MB-435 > 100 µM

Clc1nss/c1=N/c1nonc1-c1ccccc1
inactive: SNB-75 23.2 µM | CCRF-CEM 17.9 µM | ACHN 18.6 µM | UACC-257 33 µM | COLO 205 20.4 µM | IGROV-1 26.4 µM | UACC-62 33.3 µM | A498 71.6 µM | M14 16 µM | OVCAR-3 39 µM | 786-0 30.5 µM | RXF 393 29.2 µM | HCT-116 34.9 µM | PC-3 38.3 µM | NCI-H226 29.6 µM | NCI/ADR-RES 24 µM | MDA-MB-435 38.6 µM | KM12 31 µM

O=C(O)C(Br)C(Br)c1ccccc1[N+](=O)[O-] (stereo unspecified)
inactive: SNB-75 > 100 µM | ACHN > 100 µM | UACC-257 > 100 µM | SF-268 > 100 µM | COLO 205 > 100 µM | IGROV-1 > 100 µM | UACC-62 > 100 µM | A498 > 100 µM | M14 > 100 µM | OVCAR-3 46.9 µM | 786-0 > 100 µM | RXF 393 > 100 µM | HCT-116 > 100 µM | PC-3 > 100 µM | NCI-H226 > 100 µM | TK-10 > 100 µM | NCI/ADR-RES > 100 µM | MDA-MB-435 > 100 µM | KM12 > 100 µM

CCCCCCN1C(=O)CC(=O)N(CCCCCC)S1(=O)=O
inactive: SNB-75 17.9 µM | CCRF-CEM 21.7 µM | UACC-257 38.4 µM | SF-268 17.7 µM | COLO 205 17.9 µM | IGROV-1 12.4 µM | UACC-62 17.3 µM | A498 14.7 µM | M14 32.4 µM | OVCAR-3 21.4 µM | 786-0 18.5 µM | RXF 393 16.4 µM | HCT-116 29.6 µM | PC-3 23 µM | NCI-H226 26.6 µM | TK-10 19.1 µM | NCI/ADR-RES 21.7 µM | MDA-MB-435 22.3 µM | KM12 28.1 µM

C[C@@]1(O)C2C3CC4C5C3C1[C@](O)(C42)[C@H]5Br (stereo partly specified)
inactive: CCRF-CEM > 100 µM | ACHN > 100 µM | UACC-257 > 100 µM | SF-268 > 100 µM | COLO 205 > 100 µM | IGROV-1 > 100 µM | UACC-62 > 100 µM | A498 > 100 µM | M14 > 100 µM | OVCAR-3 > 100 µM | 786-0 > 100 µM | RXF 393 > 100 µM | HCT-116 > 100 µM | PC-3 > 100 µM | TK-10 > 100 µM | NCI/ADR-RES > 100 µM | MDA-MB-435 > 100 µM | KM12 > 100 µM

CN1c2ccccc2S(=O)(=O)n2c(COc3ccc(Cl)cc3)nnc21
inactive: CCRF-CEM 75.7 µM | ACHN > 100 µM | UACC-257 > 100 µM | SF-268 55 µM | COLO 205 > 100 µM | IGROV-1 > 100 µM | UACC-62 56.2 µM | A498 30.5 µM | M14 > 100 µM | OVCAR-3 > 100 µM | 786-0 41.5 µM | RXF 393 55.1 µM | HCT-116 > 100 µM | PC-3 > 100 µM | NCI-H226 92.5 µM | TK-10 > 100 µM | NCI/ADR-RES > 100 µM | MDA-MB-435 > 100 µM | KM12 > 100 µM
